{"source": "patent US9611453B2", "about": "“Micromechanical devices for control of cell-cell interaction, and methods of use thereof” (The Regents of the University of California, priority 2007, dated 2017)", "key": {"3T3 fibroblasts": {"tested_on": "3T3 fibroblasts", "assay": "Viability assay of hepatocyte / 3T3 fibroblast co-culture after drug exposure, populations separated on micromechanical substrates", "type": "cell-based, murine", "description": "FIG. 13 depicts population-specific readout or selective interrogation. Hepatocytes and 3T3 fibroblasts are co-cultured to maintain hepatocyte differentiation. In (A) the drug Pyrilamine is introduced while the cells are in co-culture. By using the micromechanical substrates, the two cell populations are separated prior to viability assay, allowing the viability of each cell type to be assessed independently. […] In (B) the effect of the drug Methapyrilamine is compared when the cells are in co-culture or when the 3T3 are alone.\nIn another embodiment, in addition to the selective stimulation described above, one can separate a subpopulation of cells from a culture in order to assay those cells specifically; this is known as selective interrogation. One example of selective interrogation is shown in FIG. 11, where SEC cells are separated out from a culture of many cell types, and a Western Blot is performed on the purified SEC population. Another example is in FIG. 15, where hepatocytes and 3T3 fibroblasts are separated before viability assays are performed on each population."}, "LSEC": {"tested_on": "LSEC", "settings": "previously demonstrated (Fujimoto, H. et al. 2006); cited from earlier work"}, "[1]": {"tested_on": "liver sinusoidal endothelial cells (LSEC)", "assay": "SE-1 expression of cultured LSEC (immunohistochemistry and Western blotting)", "type": "cell-based", "settings": "primary rat LSEC cultured in the presence of OV, day 3", "description": "For example, immunohistochemistry and Western blotting were used to characterize expression of the specific EC markers RECA, SE-1, PECAM and AcLDL in isolated primary rat LSECs were cultured under the following conditions: a) on the different ECM proteins including, Collagen-I, Fibronectin, Laminin, and Collagen-IV; b) with various combinations of supportive cells, using the micromechanical reconfigurable culture method described herein to enable tracking of individual cell types, separation into pure populations for analysis, and deconvolution of contact-mediated versus soluble signals; and c) in the presence of the tyrosine phosphatase inhibitor, orthovanadate (OV).\nIn addition, the co-culture of LSEC with hepatocytes or fibroblast-stabilized hepatocytes induced LSEC proliferation as well as the activation of the transcription factor STAT-1."}}}
{"smiles": "COc1ccc(CN(CCN(C)C)c2ccccn2)cc1", "note": "[Pyrilamine]", "values": [{"measurement": "sensitivity to the toxic effects (viability), 3T3 versus hepatocytes", "setting": "3T3 fibroblasts; drug introduced while hepatocytes and 3T3 are in co-culture, populations separated prior to viability assay, FIG. 13A", "value": "3T3 are shown to be more sensitive"}]}
{"smiles": "CN(C)CCN(Cc1cccs1)c1ccccn1", "note": "[Methapyrilamine]", "values": [{"measurement": "sensitivity of 3T3 to the toxic effects, co-culture versus 3T3 alone", "setting": "3T3 fibroblasts; 3T3 in co-culture with hepatocytes or alone, FIG. 13B", "value": "more sensitive to the toxic effects of the drug when alone"}]}
{"smiles": "[O]=[V]([O-])([O-])[O-]", "note": "[OV, orthovanadate]", "values": [{"measurement": "LSEC apoptosis", "setting": "LSEC", "value": "inhibited LSEC apoptosis"}, {"measurement": "SE-1 expression", "setting": "[1]", "value": "strongly maintaining"}]}
